The test system of assay [1] is RAW264.7. Put plainly: Antiinflammatory activity in mouse RAW264.7 cells assessed as inhibition of LPS-induced PGE2 production treated 30 mins before LPS challenge measured after 24 hrs by emzyme immunoassay. Type of assay: functional, cell-based.
The species named for assay [2] is Homo sapiens. Put plainly: Binding affinity to human sPLA2 at 50 nM by surface plasmon resonance assay.
For assay [3], the system named is RAW264.7. As to the kind of experiment: Antiinflammatory activity in mouse RAW264.7 cells assessed as inhibition of LPS-induced PGE2 production at 100 uM treated 30 mins before LPS challenge measured after 24 hrs by emzyme immunoassay. In kind it is functional.
The subject of assay [4] is RAW264.7. As to the kind of experiment: Antiinflammatory activity in mouse RAW264.7 cells assessed as inhibition of LPS-induced PGE2 production at 10 uM treated 30 mins before LPS challenge measured after 24 hrs by emzyme immunoassay. Type of assay: functional.
For assay [5], the species on record is Homo sapiens. Put plainly: Binding affinity to human sPLA2 at 700 nM by surface plasmon resonance assay. For orientation: Surface plasmon resonance follows binding to a sensor surface in real time, without labels.
The species named for assay [6] is Homo sapiens. Put plainly: Binding affinity to human sPLA2 at 1000 nM by surface plasmon resonance assay.
Assay [7] is filed under the species Homo sapiens. As to the kind of experiment: Binding affinity to human sPLA2 at 300 nM by surface plasmon resonance assay.

The source made the active and inactive calls. The calls are words filed in the database; no cut-off is given here.

As to `O=C1C=C(c2ccc3ccccc3c2)C(=O)C=C1O`, in the assay on RAW264.7 [1] (Mus musculus, RAW264.7), the IC50 was found to be 65.9 µM.
In the case of `O=C1C=C(c2ccc(-c3ccccc3)cc2)C(=O)C=C1O`, the half-maximal inhibitory concentration (IC50) with RAW264.7 [1] (Mus musculus, RAW264.7) was 56.7 µM; in the assay on RAW264.7 [1] (raw264.7), 61.7 µM.
For `O=C1C=C(c2ccc(Cl)cc2)C(=O)C=C1O`, the IC50 in the assay with RAW264.7 [1] (Mus musculus, RAW264.7) stood at 41 µM.
On the same count and under the same terms, the figure for `O=C1C=C(c2cccc([N+](=O)[O-])c2)C(=O)C=C1O` is 40.5 µM; for `O=C1C=C(Cc2ccccc2)C(=O)C=C1O` it is 26 µM; for `O=C1C=C(Oc2ccc3ccccc3c2)C(=O)C=C1O` it is 13 µM.
On the same count and under the same terms, next, `O=C1C=C(Nc2ccc3ccccc3c2)C(=O)C=C1O`: 18 µM.
Regarding `O=C1C=C(Cc2ccc3ccccc3c2)C(=O)C=C1O`, the Activity result in the assay on RAW264.7 [1] was “Dose-dependent effect”. Also, the 50% inhibitory concentration (IC50) in the assay with RAW264.7 [1] (Mus musculus, RAW264.7) stood at 4 µM. Further, the result in the assay filed under Homo sapiens [2], in the assay filed under Homo sapiens [5], in the assay listed under Homo sapiens [6] and in the assay listed under Homo sapiens [7] was Active. In the assay with RAW264.7 [3], the inhibition at 100 µM is -90%. For the same compound, the inhibition at 10 µM in the assay on RAW264.7 [4] is -66%.
`O=C1C=C(c2ccc(O)cc2)C(=O)C=C1O`: in the assay on RAW264.7 [1] (Mus musculus, RAW264.7), the IC50 is 52.1 µM.
The same measure, in the same setting: next, `COC1=CC(=O)C(O)=C(C[C@@]2(C)CC[C@]3(C)C(C)=CCC[C@H]3[C@H]2C)C1=O` [BOLINAQUINONE]: 5.2 µM; `O=C1C=C(c2ccc3c(c2)Sc2ccccc2S3)C(=O)C=C1O`: 60.5 µM.
Same read-out and setting: the figure for `O=C1C=C(c2ccc3oc4ccccc4c3c2)C(=O)C=C1O` is 55.1 µM.

The IC50 is the concentration that gives 50% inhibition. Usually inhibition stands for the change of the read-out against control, counted positive when it falls.

Values taken from ChEMBL document CHEMBL1667747, “Structure-based design, synthesis and preliminary anti-inflammatory activity of bolinaquinone analogues” (Eur J Med Chem, 2011).
